Inhibition and IC50 data for 21 molecules are collected here from ChEMBL document CHEMBL1134205, “Development of novel telomerase inhibitors based on a bisindole unit” (Bioorg Med Chem Lett, 2001).

Experiment [1] concerns the target T1, Telomerase reverse transcriptase (Homo sapiens, UniProt O14746). In words: Inhibition ratio of human telomerase was determined by stretch PCR assay with use of 100 uM of the ligand.
Experiment [2] has as its target T1, Telomerase reverse transcriptase. In words: Inhibitory concentration against human telomerase.

T1 sequence (O14746 whole entry): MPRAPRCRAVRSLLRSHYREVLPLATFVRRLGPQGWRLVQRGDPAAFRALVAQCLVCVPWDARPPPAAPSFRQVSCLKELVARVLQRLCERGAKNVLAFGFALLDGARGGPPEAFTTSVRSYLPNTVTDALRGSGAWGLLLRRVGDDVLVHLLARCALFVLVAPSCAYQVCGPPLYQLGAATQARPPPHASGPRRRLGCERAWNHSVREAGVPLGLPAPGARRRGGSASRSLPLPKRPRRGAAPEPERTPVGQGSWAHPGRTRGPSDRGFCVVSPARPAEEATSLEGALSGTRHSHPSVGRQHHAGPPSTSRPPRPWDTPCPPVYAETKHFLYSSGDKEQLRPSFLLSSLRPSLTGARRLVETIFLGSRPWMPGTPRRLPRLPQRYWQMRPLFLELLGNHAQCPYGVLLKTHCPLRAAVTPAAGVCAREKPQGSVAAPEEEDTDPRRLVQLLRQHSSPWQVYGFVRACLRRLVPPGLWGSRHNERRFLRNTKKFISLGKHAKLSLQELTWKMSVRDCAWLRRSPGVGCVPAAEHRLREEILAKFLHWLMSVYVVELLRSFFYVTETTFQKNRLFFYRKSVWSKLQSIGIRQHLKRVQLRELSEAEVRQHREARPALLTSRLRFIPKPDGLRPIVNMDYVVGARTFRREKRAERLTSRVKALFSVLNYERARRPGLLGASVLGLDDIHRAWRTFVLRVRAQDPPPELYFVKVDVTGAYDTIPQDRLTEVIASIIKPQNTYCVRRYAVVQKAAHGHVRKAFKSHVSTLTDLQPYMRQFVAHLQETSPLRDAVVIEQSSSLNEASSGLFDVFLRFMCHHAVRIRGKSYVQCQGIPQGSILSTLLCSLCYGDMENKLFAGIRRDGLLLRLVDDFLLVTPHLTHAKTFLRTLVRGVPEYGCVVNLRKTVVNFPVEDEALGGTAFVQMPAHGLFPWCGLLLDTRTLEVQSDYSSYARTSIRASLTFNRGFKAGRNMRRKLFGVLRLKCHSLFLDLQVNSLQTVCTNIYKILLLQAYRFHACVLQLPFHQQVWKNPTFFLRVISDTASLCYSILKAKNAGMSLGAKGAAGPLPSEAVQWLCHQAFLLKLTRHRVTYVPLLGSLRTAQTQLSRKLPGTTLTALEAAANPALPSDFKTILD

Regarding `O=C(O)CCCCCCCCCCCNC(=O)Cc1cn(CCCOC2CCCCC2)c2ccccc12`, the inhibition in experiment [1] worked out at 75%. Besides, the IC50 in experiment [2] amounted to 67 µM.
On to `O=C(O)CCCCCCCCCCCNC(=O)Cc1cn(CCOc2ccccc2)c2ccccc12`, for which the inhibition in experiment [1] was 0%.
`O=C(Cc1cn(CCn2ccc3cc(Cl)ccc32)c2ccccc12)NCCCCCCCCCCCCOP(=O)(O)Oc1ccccc1` returned a concentration for half-maximal inhibition (IC50) in experiment [2] of 6.7 µM.
For the molecule `O=C(O)CCCCCCCCCCCNC(=O)Cc1cn(CCOc2cccc3ccccc23)c2ccccc12`, the inhibition in experiment [1] worked out at 65%. Also, in experiment [2], the IC50 was determined as 35 µM.
For `O=C(O)CCCCCCCCCCCNC(=O)Cc1cn(CCCn2ccc3ccccc32)c2ccccc12`, in that order: 46% and 92 µM.
For `O=C(O)CCCCCCCCCCCNC(=O)Cc1c2n(c3ccccc13)CCn1c-2cc2ccccc21`, in that order: 62% and 62 µM.
On the same counts, the results for `Cc1cn(CCn2cc(CC(=O)NCCCCCCCCCCCC(=O)O)c3ccccc32)c2ccccc12` are 7% and greater than 100 µM.
`Cc1cn(CCCn2cc(CC(=O)NCCCCCCCCCCCCOP(=O)(OCCC#N)Oc3cccc(Cl)c3)c3ccccc32)c2ccccc12` (configuration not stated) showed an IC50 in experiment [2] greater than 100 µM.
As for `Cc1cn(CCCn2cc(CC(=O)NCCCCCCCCCCCC(=O)O)c3ccccc32)c2ccccc12`, the inhibition in experiment [1] came out at 100%. Besides, in experiment [2], it took 20 µM to reach half-maximal inhibition (IC50).
As to `Cc1cn(CCCn2cc(CC(=O)NCCCCCCCCCCCCOP(=O)(O)Oc3cccc(Cl)c3)c3ccccc32)c2ccccc12`, in experiment [2], 3.4 µM corresponded to half-maximal inhibition (IC50). This lies in the single-digit micromolar range.
In experiment [2], `N#CCCOP(=O)(O)OCCCCCCCCCCCCNC(=O)Cc1cn(CCn2ccc3cc(Cl)ccc32)c2ccccc12` showed a half-inhibitory concentration (IC50) greater than 100 µM.
Still for that read-out and setting: the result for `O=C(O)CCCCCCCCCCCNC(=O)COc1c(-c2cc3ccccc3[nH]2)[nH]c2ccccc12` reads greater than 100 µM.
As to `O=C(O)CCCCCCCCCCCNC(=O)Cc1cn(CCCn2cccc2)c2ccccc12`, the inhibition in experiment [1] stood at 0%. The molecule further returned a 50% inhibitory concentration (IC50) in experiment [2] greater than 100 µM.
In turn, `O=C(Cc1cn(CCn2ccc3cc(Cl)ccc32)c2ccccc12)NCCCCCCCCCCCCOP(=O)(O)Oc1cccc(Cl)c1` yielded an IC50 in experiment [2] of 2.5 µM.
For `N#CCCOP(=O)(OCCCCCCCCCCCCNC(=O)Cc1cn(CCn2ccc3cc(Cl)ccc32)c2ccccc12)Oc1cccc(Cl)c1` (configuration not stated), in experiment [2], the half-maximal inhibitory concentration (IC50) was greater than 100 µM.
Same read-out and setting: next, `O=C(Cc1cn(CCCn2cccc2)c2ccccc12)NCCCCCCCCCCCOP(=O)(O)c1ccccc1Cl`: 4.2 µM.
`O=C(O)CCCCCCCCCCCNC(=O)Cc1cn(CCCOc2ccccc2)c2ccccc12`: in experiment [1], the inhibition was determined as 75%. The IC50 in experiment [2] was 33 µM.
Take `Cc1c2n(c3ccccc13)CCCn1c-2c(CC(=O)NCCCCCCCCCCCC(=O)O)c2ccccc21`: the inhibition in experiment [1] was found to be 82%. Moreover, it took 50 µM to reach half-maximal inhibition in experiment [2] (IC50).
Take `O=C(O)CCCCCCCCCCCNC(=O)Cc1cn(CCn2ccc3ccccc32)c2ccccc12`: the inhibition in experiment [1] worked out at 77%. In experiment [2], this molecule registered a concentration for half-maximal inhibition (IC50) of 41 µM.
On the same counts, the results for `O=C(O)CCCCCCCCCCCNC(=O)Cc1cn(CCCN2CCCC2)c2ccccc12` are 13% and greater than 100 µM.
Molecule `O=C(Cc1cn(CCn2ccc3cc(Cl)ccc32)c2ccccc12)NCCCCCCCCCCCCOP(=O)(O)OC1CCCCC1` displayed an IC50 in experiment [2] of 8.7 µM. In other words, the single-digit micromolar range.

As a reminder, the inhibition is the drop in the measured response relative to a control, in per cent. What is called IC50 is the point on the concentration scale where inhibition reaches its midpoint. Low readings indicate inhibition by little substance, high ones a need for much substance.
